Experiments:
bedstraw = test: Test B pre/postemergence bedstraw; type: in vivo, Galium aparine
Procedure, shortened: (§1)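 Herbicidal effect was estimated by eye on a ten-point control scale after plants spent twelve to sixteen days in a greenhouse following soil or foliar treatment. Foliar sprays targeted plants at one to four leaves; all doses were formulated in a non-phytotoxic solvent with surfactant.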

blackgrass = test: Test B pre/postemergence blackgrass; type: in vivo, Alopecurus myosuroides
Procedure, shortened: as §1

surinam grass = test: Test B pre/postemergence surinam grass; type: in vivo, Brachiaria decumbens; conditions: Postemergence
Procedure, shortened: as §1

cocklebur = test: Test B pre/postemergence cocklebur; type: in vivo, Xanthium strumarium
Procedure, shortened: as §1

corn = test: Test B pre/postemergence corn; type: in vivo, Zea mays
Procedure, shortened: as §1

crabgrass = test: Test B pre/postemergence crabgrass; type: in vivo, Digitaria sanguinalis
Procedure, shortened: as §1

giant foxtail = test: Test B pre/postemergence giant foxtail; type: in vivo, Setaria faberii
Procedure, shortened: as §1

morningglory = test: Test B pre/postemergence morningglory; type: in vivo, Ipomoea hederacea
Procedure, shortened: as §1

pigweed = test: Test B pre/postemergence pigweed; type: in vivo, Amaranthus retroflexus
Procedure, shortened: as §1

rape = test: Test B pre/postemergence rape; type: in vivo, Brassica napus
Procedure, shortened: as §1

soybean = test: Test B pre/postemergence soybean; type: in vivo, Glycine max
Procedure, shortened: as §1

sugar beet = test: Test B pre/postemergence sugar beet; type: in vivo, Beta vulgaris
Procedure, shortened: as §1

velvetleaf = test: Test B pre/postemergence velvetleaf; type: in vivo, Abutilon theophrasti
Procedure, shortened: as §1

wheat = test: Test B pre/postemergence wheat; type: in vivo, Triticum aestivum
Procedure, shortened: as §1

wild oat = test: Test B pre/postemergence wild oat; type: in vivo, Avena fatua
Procedure, shortened: as §1

purple nutsedge = test: Test B pre/postemergence purple nutsedge; type: in vivo, Cyperus rotundus
Procedure, shortened: as §1

[1] = Postemergence, Rate 62 g/ha, scale 0 to 10, 0 is no effect, 10 is complete control
[2] = Postemergence, Rate 125 g/ha, scale of 0 to 10 where 0 is no effect and 10 is complete control
[3] = Preemergence, Rate 125 g/ha, scale of 0 to 10 where 0 is no effect and 10 is complete control
[4] = Preemergence, Rate 250 g/ha, scale 0 (no effect) to 10 (complete control)
[5] = Rate 62 g/ha, Preemergence, scale 0 to 10
[6] = Rate 250 g/ha, Postemergence, scale 0 to 10, 0 is no effect, 10 is complete control
[7] = Rate 500 g/ha, Postemergence, scale 0 to 10, 0 is no effect, 10 is complete control
[8] = Rate 500 g/ha, Preemergence, scale 0 to 10 (0 no effect, 10 complete control)

CC(C)N(C(=O)n1oc(=O)n(C(C)C(=S)N(C)C)c1=O)c1ccc(F)cc1F (stereo not shown) [Compound 739]
Plant response rating, Bedstraw (bedstraw; [1]): 3
Bedstraw plant response rating (bedstraw; [2]): 3
Plant response rating, Bedstraw (bedstraw; [3]): 10
Bedstraw plant response rating (bedstraw; [4]): 10
Bedstraw plant response rating (bedstraw; [5]): 0
Bedstraw plant response rating (bedstraw; [6]): 4
Bedstraw plant response rating (bedstraw; [7]): 6
Bedstraw plant response rating (bedstraw; [8]): 10
Plant response rating, Blackgrass (blackgrass; [1]): 0
Blackgrass plant response rating (blackgrass; [2]): 3
Plant response rating, Blackgrass (blackgrass; [3]): 3
Blackgrass plant response rating (blackgrass; [4]): 3
Blackgrass plant response rating (blackgrass; [5]): 2
Blackgrass plant response rating (blackgrass; [6]): 3
Blackgrass plant response rating (blackgrass; [7]): 6
Blackgrass plant response rating (blackgrass; [8]): 10
Plant response rating, B. signalgrass (surinam grass; Rate 62 g/ha, scale 0 to 10, 0 is no effect, 10 is complete control): 0
B. signalgrass plant response rating (surinam grass; Rate 125 g/ha, scale of 0 to 10 where 0 is no effect and 10 is complete control): 2
B. signalgrass plant response rating (surinam grass; Rate 250 g/ha, scale 0 to 10, 0 is no effect, 10 is complete control): 2
B. signalgrass plant response rating (surinam grass; Rate 500 g/ha, scale 0 to 10, 0 is no effect, 10 is complete control): 7
Plant response rating, Cocklebur (cocklebur; [1]): 2
Cocklebur plant response rating (cocklebur; [2]): 2
Plant response rating, Cocklebur (cocklebur; [3]): 0
Cocklebur plant response rating (cocklebur; [4]): 0
Cocklebur plant response rating (cocklebur; [5]): 0
Cocklebur plant response rating (cocklebur; [6]): 2
Cocklebur plant response rating (cocklebur; [7]): 3
Cocklebur plant response rating (cocklebur; [8]): 0
Plant response rating, Corn (corn; [1]): 0
Corn plant response rating (corn; [2]): 0
Plant response rating, Corn (corn; [3]): 0
Corn plant response rating (corn; [4]): 2
Corn plant response rating (corn; [5]): 0
Corn plant response rating (corn; [6]): 0
Corn plant response rating (corn; [7]): 0
Corn plant response rating (corn; [8]): 2
Plant response rating, Crabgrass (crabgrass; [1]): 4
Crabgrass plant response rating (crabgrass; [2]): 9
Plant response rating, Crabgrass (crabgrass; [3]): 2
Crabgrass plant response rating (crabgrass; [4]): 9
Crabgrass plant response rating (crabgrass; [5]): 2
Crabgrass plant response rating (crabgrass; [7]): 9
Crabgrass plant response rating (crabgrass; [8]): 10
Plant response rating, Giant foxtail (giant foxtail; [1]): 7
Giant foxtail plant response rating (giant foxtail; [2]): 9
Plant response rating, Giant foxtail (giant foxtail; [3]): 9
Giant foxtail plant response rating (giant foxtail; [4]): 9
Giant foxtail plant response rating (giant foxtail; [5]): 9
Giant foxtail plant response rating (giant foxtail; [6]): 9
Giant foxtail plant response rating (giant foxtail; [7]): 9
Giant foxtail plant response rating (giant foxtail; [8]): 10
Plant response rating, Morningglory (morningglory; [1]): 6
Plant response rating, Morningglory (morningglory; [3]): 0
Morningglory plant response rating (morningglory; [4]): 0
Morningglory plant response rating (morningglory; [5]): 0
Morningglory plant response rating (morningglory; [6]): 6
Morningglory plant response rating (morningglory; [7]): 8
Morningglory plant response rating (morningglory; [8]): 0
Plant response rating, Redroot pigweed (pigweed; [1]): 0
Redroot pigweed plant response rating (pigweed; [2]): 3
Plant response rating, Redroot pigweed (pigweed; [3]): 2
Redroot pigweed plant response rating (pigweed; [4]): 9
Redroot pigweed plant response rating (pigweed; [5]): 2
Redroot pigweed plant response rating (pigweed; [6]): 3
Redroot pigweed plant response rating (pigweed; [7]): 5
Redroot pigweed plant response rating (pigweed; [8]): 10
Plant response rating, Rape (rape; [1]): 0
Rape plant response rating (rape; [2]): 0
Plant response rating, Rape (rape; [3]): 0
Rape plant response rating (rape; [4]): 0
Rape plant response rating (rape; [5]): 0
Rape plant response rating (rape; [6]): 0
Rape plant response rating (rape; [7]): 2
Rape plant response rating (rape; [8]): 2
Plant response rating, Soybean (soybean; [1]): 3
Soybean plant response rating (soybean; [2]): 3
Plant response rating, Soybean (soybean; [3]): 0
Soybean plant response rating (soybean; [4]): 0
Soybean plant response rating (soybean; [5]): 0
Soybean plant response rating (soybean; [6]): 4
Soybean plant response rating (soybean; [7]): 5
Soybean plant response rating (soybean; [8]): 0
Plant response rating, Sugarbeets (sugar beet; [1]): 3
Sugarbeets plant response rating (sugar beet; [2]): 3
Plant response rating, Sugarbeets (sugar beet; [3]): 2
Sugarbeets plant response rating (sugar beet; [4]): 2
Sugarbeets plant response rating (sugar beet; [5]): 2
Sugarbeets plant response rating (sugar beet; [6]): 3
Sugarbeets plant response rating (sugar beet; [7]): 4
Sugarbeets plant response rating (sugar beet; [8]): 4
Plant response rating, Velvetleaf (velvetleaf; [1]): 0
Velvetleaf plant response rating (velvetleaf; [2]): 0
Plant response rating, Velvetleaf (velvetleaf; [3]): 0
Velvetleaf plant response rating (velvetleaf; [4]): 2
Velvetleaf plant response rating (velvetleaf; [5]): 0
Velvetleaf plant response rating (velvetleaf; [6]): 0
Velvetleaf plant response rating (velvetleaf; [7]): 3
Velvetleaf plant response rating (velvetleaf; [8]): 3
Plant response rating, Wheat (wheat; [1]): 0
Wheat plant response rating (wheat; [2]): 0
Plant response rating, Wheat (wheat; [3]): 0
Wheat plant response rating (wheat; [4]): 0
Wheat plant response rating (wheat; [5]): 0
Wheat plant response rating (wheat; [6]): 2
Wheat plant response rating (wheat; [7]): 6
Wheat plant response rating (wheat; [8]): 3
Plant response rating, Wild oats (wild oat; [1]): 0
Wild oats plant response rating (wild oat; [2]): 0
Plant response rating, Wild oats (wild oat; [3]): 0
Wild oats plant response rating (wild oat; [4]): 0
Wild oats plant response rating (wild oat; [5]): 0
Wild oats plant response rating (wild oat; [6]): 0
Wild oats plant response rating (wild oat; [7]): 0
Wild oats plant response rating (wild oat; [8]): 4
Plant response rating, Nutsedge (purple nutsedge; [1]): 0
Plant response rating, Nutsedge (purple nutsedge; [3]): 0
Nutsedge plant response rating (purple nutsedge; [4]): 0
Nutsedge plant response rating (purple nutsedge; [5]): 0
Nutsedge plant response rating (purple nutsedge; [6]): 0
Nutsedge plant response rating (purple nutsedge; [7]): 3
Nutsedge plant response rating (purple nutsedge; [8]): 0
